Laboratory results: patent US9464053B2, “Compositions for reducing Aβ 42 production and their use in treating alzheimer's disease (AD)” (KAREUS THERAPEUTICS SA, priority 2010, dated 2016)
Marks after values point to notes of the source that are not given here.

What was measured:
Wistar rats = assay: Morris water maze task, scopolamine memory deficit; type: in vivo, rat; details: mean, p.o., scopolamine-treated
Description: Male wistar rats are used for this study. The Water maze consists of a 1.8 m diameter; 0.6 m high circular tank filled with water (24±2° C.). A platform 16 cm diameter will be placed 1.0 cm below the water surface in the center of one of the four imaginary quadrants, which remains constant for all the rats. […] Rats were lowered gently, feet first into water. A rat was allowed to swim for 60 s to find the platform. If the platform was found during this time the trial was stopped and rat was allowed to stay on platform for 30 s before being removed from the maze. If the platform was not found during 60 s trial, then the rat was manually placed on the platform facing a visual cue and allowed to stay on platform for 30 s before being removed from the maze. The rats were taken off the platform (ensuring that the rat sees the investigator's hand from the front before removal) and dried with a towel gently. Each rat received 4 trials in a day. The maze has 8 starting points. On the first and third day the animals started from 1st, 3rd, 5th & 7th starting points. On the second and fourth day the animals started from 2nd, 4th, 6th & […] starting points. Retention of the task was assessed on 5th day in which each animal received a single 120 s probe trial during which platform was removed from the pool. Rats were not treated prior to retention trail. Rats were placed under a heating lamp for 5 min before being returned to its home cage. Latency to reach the platform ([…]), swim speed (cm/s) and path length (cm) was measured in acquisition trials. Percentage time spent in target quadrant (quadrant in which platform is placed during acquisition training) and swim speed (cm/s) was calculated in probe trial. The animals were tracked and the data was generated using the Video Mot 2 software. Experimentation was carried out over a period of 10 days i.e. first 6 animals was experimented on first five days and the next 6 animals was experimented on next five days (Pretreatment and testing schedule was initiated accordingly such that all animals receive 9 doses of vehicle or test drug). Data obtained was analyzed by Repeated measures Two way ANOVA followed by Bonferroni post tests by using the Graph pad prism software package.

Aβ-42 levels in brain = assay: Brain Aβ-42 levels in rat after two weeks oral treatment (ELISA); type: in vivo; details: 2 weeks; for Aβ-42 levels Mean ± SE: rat brain, soluble fraction; for Percentage change: vs Control
Description: Animals are randomized into different treatment groups based on body weight. The test compounds are administered orally for 2 weeks while the control animals are administered the vehicle alone.
At the end of the study, animals are sacrificed 2 hours after the last dose and brain samples are excised and immediately frozen on dry ice. The frozen brains are homogenized in 3 volumes (w/v) of ice-cold 0.2% Diethylamine containing 50 mM NaCl, pH 10, and protease inhibitors, and then centrifuged at 15000 rpm at 4° C. for 30 min using a centrifuge. The resulting supernatant is retained as the soluble fraction and neutralized by addition of 10% 0.5 M Tris-HCl, pH 6.8.
Ar3-42 levels in brain tissue extracts were determined by ELISA. […] 100 μL of this was coated per well in a 96 well immunoplate (NUNC) at 4° C. for 16-18 hours. The plate was washed 3× with 230 μL of wash buffer. The wells were then blocked with 150 μL of blocking buffer for 1 hour. The plate was washed 3× with 230 μL of wash buffer. Samples, standard (2500-1.1 ng/ml) and blank were added to the appropriate wells and incubated with mild shaking for 2 hours. The plate was then washed 3× with 230 μL of wash buffer. […] 100 μL of this was added per well and incubated with mild shaking for 2 hours. The plate was washed 3× with 230 μl of wash buffer. 100 lit of Detection antibody, Anti-rabbit IgG whole molecule HRP conjugate (Sigma A6154 diluted 1:1000 with 1% BSA) added in to the wells and incubated for 2 hours with mild shaking. The plate was washed 3× with 230 μl of wash buffer followed by 100 μL of Strepavidin HRP (1:200 diluted with 1% BSA). The plate was 3× with 230 μL of wash buffer and 100 μL of TMB/H2O2 substrate was added and incubated for 20 minutes. The reaction was topped by adding 50 μL of 2N H2SO4 and the absorbance was measured at 450/570 nm in a microplate reader (BioTek)

soluble brain aβ-40 = assay: Tg2576 transgenic mouse model, soluble brain aβ-40 (ELISA); type: in vivo; details: Tg 2576 mice, 4 weeks, 50 mg/kg orally daily
Description: (§1) The study used 6-month old Tg (HuApp695.K670-M671L) 2576 transgenic and age-matched C57B16/SJL non-transgenic control mice (Hsiao K, Chapman P, Nilsen S, Eckman C, Harigaya Y, et al. Correlative memory deficits, Abeta elevation, and amyloid plaques in transgenic mice. Science. 1996; 274:99-102). Mice were obtained from Jackson Labs and a colony was established. Tg2576 transgenic mice over-express human APP with the double Swedish mutation. Tg2756 and control mice were treated for a period of 4 weeks with either 1) vehicle alone n=10), 2) compound 9 (50 mg/kg dosed orally; n=10). Soluble brain aβ-42 and aβ-40 were measured using the typical ELISA protocol described before.

Aβ42 secretion = assay: Reduction of Aβ42 production in human neuronal SH-SY5Y cells (sandwich ELISA of cell media); type: cell-based; details: SH-SY5Y cells incubated overnight, Aβ42 in media by sandwich ELISA, read-out: Aβ42 IC50
Description: We used the human Neuroblastoma SH-SY5Y cells for drug testing as a model for Aβ42 production. […] Cell toxicity was monitored using the MTT assay and all data reported are corrected for any cell loss.
The capture antibody, detection antibody and secondary antibody as well as standard purified preparations of Aβ42 were obtained from Sigma-Aldrich. Cells were cultured for 24 h in the presence or absence of compounds and the conditioned medium was subjected to sELISA.
Cells were incubated overnight with increasing concentrations the compounds. The cell media was then harvested and Aβ42 in the media was quantitated using sandwich ELISA.

soluble brain aβ-42 = assay: Tg2576 transgenic mouse model, soluble brain aβ-42 (ELISA); type: in vivo; details: Tg 2576 mice, 4 weeks, 50 mg/kg orally daily
Description: as §1

[1] = Day-1 acquisition trials, 1 mg/kg
[2] = Day-1 acquisition trials, 3 mg/kg
[3] = Day-1 acquisition trials, 10 mg/kg
[4] = Day-2 acquisition trials, 1 mg/kg
[5] = Day-2 acquisition trials, 3 mg/kg
[6] = Day-2 acquisition trials, 10 mg/kg
[7] = Day-3 acquisition trials, 1 mg/kg
[8] = Day-3 acquisition trials, 3 mg/kg
[9] = Day-3 acquisition trials, 10 mg/kg
[10] = Day-4 acquisition trials, 1 mg/kg
[11] = Day-4 acquisition trials, 3 mg/kg
[12] = Day-4 acquisition trials, 10 mg/kg

SMILES: C=CCc1ccc(OC(=O)CC(OC(=O)c2cccnc2)C(=O)OC)c(OC)c1 (stereo not drawn) [Compound 9, 2-(Pyridine-3-carbonyloxy)-succinic acid 4-(4-allyl-2-methoxy-phenyl) ester 1-methyl ester]
- Path length (Wistar rats; [1]): 1423.43 cm
- Swim speed (Wistar rats; [1]): 26.53 cm/s
- Target latency (Wistar rats; [1]): 53859.40 ms
- Path length (Wistar rats; [2]): 1329.08 cm
- Swim speed (Wistar rats; [2]): 25.77 cm/s
- Target latency (Wistar rats; [2]): 50283.22^ ms
- Path length (Wistar rats; [3]): 1480.57 cm
- Swim speed (Wistar rats; [3]): 26.93 cm/s
- Target latency (Wistar rats; [3]): 54445.94 ms
- Path length (Wistar rats; [4]): 1619.28 cm
- Swim speed (Wistar rats; [4]): 30.67 cm/s
- Target latency (Wistar rats; [4]): 51421.60 ms
- Path length (Wistar rats; [5]): 1503.53 cm
- Swim speed (Wistar rats; [5]): 29.97 cm/s
- Target latency (Wistar rats; [5]): 48347.97^ ms
- Path length (Wistar rats; [6]): 1755.96 cm
- Swim speed (Wistar rats; [6]): 31.99 cm/s
- Target latency (Wistar rats; [6]): 53382.85 ms
- Path length (Wistar rats; [7]): 1414.4745^ cm
- Swim speed (Wistar rats; [7]): 31.07 cm/s
- Target latency (Wistar rats; [7]): 43128.23 ms
- Path length (Wistar rats; [8]): 1038.10** cm
- Swim speed (Wistar rats; [8]): 28.45** cm/s
- Target latency (Wistar rats; [8]): 32780.27** ms
- Path length (Wistar rats; [9]): 1509.45 cm
- Swim speed (Wistar rats; [9]): 30.89^ cm/s
- Target latency (Wistar rats; [9]): 45171.54 ms
- Path length (Wistar rats; [10]): 1233.92* cm
- Swim speed (Wistar rats; [10]): 29.51* cm/s
- Target latency (Wistar rats; [10]): 40643.54 ms
- Path length (Wistar rats; [11]): 946.10*** cm
- Swim speed (Wistar rats; [11]): 28.57*** cm/s
- Target latency (Wistar rats; [11]): 31915.04*** ms
- Path length (Wistar rats; [12]): 1254.41^ cm
- Swim speed (Wistar rats; [12]): 29.36** cm/s
- Target latency (Wistar rats; [12]): 40663.06 ms
- Aβ-42 levels Mean ± SE (Aβ-42 levels in brain; 10 mg/kg oral): 44.14 ± 7.88 ng/mg protein
- Aβ-42 levels Mean ± SE (Aβ-42 levels in brain; 25 mg/kg oral): 31.03 ± 3.98 ng/mg protein
- Aβ-42 levels Mean ± SE (Aβ-42 levels in brain; 50 mg/kg oral): 21.85 ± 1.75 ng/mg protein
- Percentage change (Aβ-42 levels in brain; 10 mg/kg oral): −22%
- Percentage change (Aβ-42 levels in brain; 25 mg/kg oral): −45%
- Percentage change (Aβ-42 levels in brain; 50 mg/kg oral): −61%
- reduction of brain levels of soluble aβ-40 (soluble brain aβ-40): 23%
- IC50 (Aβ42 secretion): 18.7 µM
- reduction of brain levels of soluble aβ-42 (soluble brain aβ-42): 22%
